Holding throughout (type): cell-based
The test system of test [1] is c-MYC. The test is described as follows: c-MYC protein expression by Western blot in PDAC cells. The protocol:
FIG. 17. Effects of complex 2 (RuH2O) on pancreatic ductal adenocarcinoma (PDAC) cells.
FIG. 18. […] Western blot analysis of the expression of c-MYC in cultures 24 and 48 h after treatment with RuH2O.
(§1) On one hand, the inventors analyzed if complex 2 may increase c-MYC expression in pancreatic CSCs, and on the other hand, if the increase in c-MYC expression would negatively affect the CSC phenotype, for example, CSC self-renewal capacity. […] After having achieved a substantial increase in c-MYC expression, it was then analyzed if the CSC self-renewal capacity was affected. To that end, briefly the PDAC cells were pre-treated twice with complex 2 (RuH2O) at a concentration of 100 and 250 μM before establishing sphere cultures in […] as described in Cioffi M (Cioffi M et al. 2015 Gut 12: 1936-1948). The spheres were again treated on day 4 after sphere formation.
(A western blot detects proteins with antibodies after separation by electrophoresis.)

The test system of test [2] is Panc185 and PancA6L cells. As to the kind of experiment: Clonogenicity of PDAC cells. To be noted: adherent cultures treated 48 hours with 100 or 250 μM, 10 days in culture. As for the experimental part:
FIG. 25. Clonogenicity of PDAC cells after treatment with RuH2O. (Top) Light micrographs of Panc185 and PancA6L colonies formed after 10 days in culture. The colonies were visualized with crystal violet staining. (Bottom) Colony efficiency quantification. The colonies were lysed in PBS-1% Triton-X and color intensity was measured with a plate reader.
(§2) The trypsinized cells were then: 1) placed in a plate at a low confluence to evaluate their clonogenicity (FIG. 25); 2) repeatedly cultured in ultra-low adherent plates in serum-free DMEM/F12 supplemented with B27 for intervals of 7 days to evaluate sphere formation capacity over multiple generations (FIG. 26); and 3) subcutaneously injected into NOD-SCID mice to check their tumorigenicity as described above (FIG. 27).

The next test deals with PDAC cancer stem cells. As to the kind of experiment: Sphere formation (self-renewal) of PDAC cancer stem cells. Conditions: for sphere formation capacity (self-renewal): PDAC cells pre-treated twice with 100 and 250 μM, treated again on day 4, against control cultures. The protocol:
as §1
It was then evaluated if ruthenium complex 2 may negatively affect CSC phenotypes, such as self-renewal and tumorigenicity. […] During these 7 days, the samples were treated again with 250 μM of RuH2O on days 1, 3, and 5 after initiation of the spheres. […] The CSC spheres were smaller and less abundant in the RuH2O group.
as §2

In test [3] the test system is c-MYC. The test is described as follows: c-MYC protein expression by Western blot in HeLa cells. As for the experimental part:
FIG. 11. (Left) Analysis of the expression levels of c-MYC (light colored bars) and ALAS1 (dark colored bars) by means of qRT-PCR. HeLa cells were incubated for 16 h or 48 h with 100 μM of complex 1 (RuCl), TMPyP4, or 50 μM of 5-FU. The levels are expressed in relation to the expression levels of the GAPDH gene. The values are the average of three experiments, and the error bars indicate standard error. (Right) Analysis of the expression of c-MYC by means of Western blot. HeLa cells were incubated for 16 h with 100 μM of complex 1 (RuCl) and then lysed, and c-MYC was detected by means of SDS-PAGE followed by Western blot with an anti-MYC antibody (right, upper panel). The relative amount of protein in two independent experiments was quantified by means of densitometry (right, lower panel). The data is represented as the factor of change with respect to untreated controls. The error bars indicate the standard deviation of the factor of change with respect to untreated controls.
FIG. 14. (Left) Transcription levels of c-MYC determined by means of qRT-PCR in the dark (black bars) or after irradiation (60 min, white bars). […] The expression values are relative to the expression of the GAPDH gene. (Right) Expression levels of c-MYC protein determined by means of Western blot in the presence or absence of complex 5. The relative amount of protein with respect to the expression levels of β-actin was quantified by means of densitometry (lower panel). The experimental method was similar to the one described in FIG. 11.
FIG. 15. […] The light colored bars correspond to expression levels of c-MYC under irradiation conditions whereas the dark colored bars correspond to darkness conditions. […] The relative levels of protein with respect to the expression levels of β-actin were quantified by means of densitometry.
HeLa cells were incubated to a confluence of 50% in the presence of the indicated concentrations of the assayed agents for 16 h. […] The c-MYC protein was detected by means of an anti-MYC antibody (Santa-Cruz Biotechnologies). […]

As to [Ru(terpy) (bpy)H2O]^2+ [complex 2], the c-MYC protein expression result in the test with c-MYC [1] (PDAC cells, 100 and 250 μM, 6, 12 or 24 hours) was “expression of c-MYC increased after treatment”; in the test with c-MYC [1] (PDAC cells, 100 and 250 μM, 6, 12 or 24 hours, listed as Complex 2), “increases the expression of c-MYC”; in the test on c-MYC [1] (Panc185 and PancA6L cells, 100 μM, 24 hours after treatment), “increased c-MYC protein expression”; in the test with c-MYC [3] (in the dark) it was “active both in the dark and upon being irradiated”; in the test with c-MYC [3] (under irradiation with light), “active both in the dark and upon being irradiated”. The c-MYC protein levels entry in the test on c-MYC [1] (Panc185 and PancA6L cells, 48 hours after treatment) is “significant decrease in c-MYC protein levels”. Further, the clonogenicity result in test [2] is “prevents clonogenicity, self-regeneration, and tumorigenicity”. Further, the “sphere formation capacity (self-renewal)” value with PDAC cancer stem cells is “significant, dose-dependent reduction in the sphere formation capacity”; with PDAC cancer stem cells (listed as Complex 2), “reduces the self-renewal capacity”. Also, in the test on PDAC cancer stem cells (PDAC cells, 250 μM for 24 hours, again on days 1, 3 and 5, against control), the sphere formation capacity result is “significant reduction in the sphere formation capacity”. In addition, the “self-regeneration (sphere formation over multiple generations)” value in the test on PDAC cancer stem cells (adherent cultures treated 48 hours with 100 or 250 μM) was “prevents clonogenicity, self-regeneration, and tumorigenicity”.

Source of the values: US11471467B2, “Ruthenium complexes for treating cancer which comprises cancer stem cells” (UNIVERSIDADE DE SANTIAGO DE COMPOSTELA, priority 2016, dated 2022).
